# Assay results taken from patent publication EP0450097B1, “BENZOHETEROCYCLIC COMPOUNDS” (OTSUKA PHARMACEUTICAL CO., LTD., priority 1989, dated 1991).
# Target: T1, V₂ receptor (Rattus norvegicus, UniProt Q00788)
# T1 construct: Using rat kidney plasma membrane preparations; from tissue; host or cells: rat kidney plasma membranes
# Experiment: V₂ receptor binding assay ([³H]-Arg-vasopressin, rat kidney plasma membrane preparations)
# Conditions: 4°C for 3 hours
# Description: Using rat kidney plasma membrane preparations prepared according to O. Hechter's method [cf: J. Bio. […] After incubation, the mixture is filtered using the glass filter (GF/F) so as to separate the membrane preparation combined with vasopressin and then washed twice with the buffer (5 ml). This glass filter is taken out and mixed with liquid scintillation cocktail. The amount of [³H]-vasopressin combined with the membrane is measured by liquid scintillation counter and the rate of the inhibitory effect of the test compound is estimated according to the following equation. Rate of the inhibitory effect (%) = 100 -(C1 - B1)/(C0 - B1)X 100 [formula] C¹: The amount of [³H]-vasopressin combined with the membrane in the presence of the test compound (in prescribed amount). C⁰: The amount of [³H)-vasopressin combined with the membrane in the absence of the test compound. B¹: The amount of [³H]-vasopressin combined with the membrane in the presence of the excess amount of vasopressin (10⁻⁶ M).
# The results are expressed as IC₅₀ values, which is the concentration of the test compound required to achieve the inhibitory effect in the rate of 50 %.
# T1 sequence (Q00788 whole entry): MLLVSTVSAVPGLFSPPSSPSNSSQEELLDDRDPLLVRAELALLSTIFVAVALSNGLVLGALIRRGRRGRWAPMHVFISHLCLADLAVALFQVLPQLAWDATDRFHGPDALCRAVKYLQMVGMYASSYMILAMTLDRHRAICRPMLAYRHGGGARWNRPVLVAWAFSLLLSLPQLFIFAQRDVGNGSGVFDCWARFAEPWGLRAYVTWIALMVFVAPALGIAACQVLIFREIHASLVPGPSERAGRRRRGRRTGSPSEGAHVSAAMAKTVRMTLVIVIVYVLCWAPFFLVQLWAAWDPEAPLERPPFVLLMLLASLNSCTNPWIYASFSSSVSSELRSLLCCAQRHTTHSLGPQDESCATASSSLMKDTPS
row,IC50,Compound
1,980 nM,"O=C(Nc1ccc(C(=O)N2CCCc3ccccc32)cc1)c1ccccc1 [Test compound 1, 1-(4-Benzoylaminobenzoyl)-1,2,3,4-tetrahydroquinoline]"
2,200 nM,O=C(Nc1ccc(C(=O)N2CCCc3ccccc32)cc1)c1cccc(Cl)c1 [compound 2]
3,400 nM,COc1cccc(C(=O)Nc2ccc(C(=O)N3CCCc4ccccc43)cc2)c1 [compound 3]
4,580 nM,N#Cc1cccc(C(=O)Nc2ccc(C(=O)N3CCCc4ccccc43)cc2)c1 [compound 4]
5,1200 nM,Nc1cccc(C(=O)Nc2ccc(C(=O)N3CCCc4ccccc43)cc2)c1 [compound 5]
6,200 nM,Cc1ccccc1C(=O)Nc1ccc(C(=O)N2CCCc3ccccc32)cc1 [compound 7]
7,320 nM,O=C(Nc1ccc(C(=O)N2CCCc3ccccc32)cc1)c1ccccc1C(F)(F)F [compound 8]
8,530 nM,O=C(Nc1ccc(C(=O)N2CCCc3ccccc32)cc1)c1ccccc1[N+](=O)[O-] [compound 9]
9,82 nM,O=C(Nc1ccc(C(=O)N2CCCc3ccccc32)cc1)c1cc(Cl)cc(Cl)c1 [compound 10]
10,1050 nM,CC(C)(C)CC(=O)Nc1ccc(C(=O)N2CCCc3ccccc32)cc1 [compound 11]
11,1970 nM,O=C(CC1CCCCC1)Nc1ccc(C(=O)N2CCCc3ccccc32)cc1 [compound 12]
12,1020 nM,O=C(Cc1ccccc1)Nc1ccc(C(=O)N2CCCc3ccccc32)cc1 [compound 13]
13,230 nM,O=C(Nc1ccc(C(=O)N2CCCc3ccccc32)cc1)C1CCCCC1 [compound 14]
14,130 nM,O=C(Nc1ccc(C(=O)N2CCCc3ccccc32)cc1)C1CCCCCC1 [compound 15]
15,170 nM,O=C(Nc1ccc(C(=O)N2CCCc3ccccc32)cc1)C1CCCCCCC1 [compound 16]
16,1000 nM,O=C(Nc1ccc(C(=O)N2CCCc3ccccc32)cc1)c1cccc2ccccc12 [compound 18]
17,1400 nM,O=C(Nc1ccccc1C(=O)N1CCCc2ccccc21)c1ccc2ccccc2c1 [compound 20]
18,1000 nM,COc1ccc(NC(=O)c2ccc(C(=O)N3CCCc4ccccc43)cc2)cc1 [compound 21]
19,330 nM,Cc1ccccc1NC(=O)c1ccc(C(=O)N2CCCc3ccccc32)cc1 [compound 22]
20,1070 nM,O=C(Nc1cccc(Cl)c1)c1ccc(C(=O)N2CCCc3ccccc32)cc1 [compound 23]
21,1090 nM,O=C(Nc1cc(Cl)cc(Cl)c1)c1ccc(C(=O)N2CCCc3ccccc32)cc1 [compound 24]
22,1670 nM,O=C(NC1CCCCC1)c1ccc(C(=O)N2CCCc3ccccc32)cc1 [compound 25]
23,98 nM,N#Cc1cccc(C(=O)Nc2ccc(C(=O)N3CCCCc4ccccc43)cc2)c1 [compound 31]
24,49 nM,O=C(Nc1ccc(C(=O)N2CCCCCc3ccccc32)cc1)C1CCCCC1 [compound 34]
25,200 nM,O=C(Nc1ccc(C(=O)N2CCCCCc3ccccc32)cc1)c1ccccc1 [compound 35]
26,160 nM,COc1cccc(C(=O)Nc2ccc(C(=O)N3CCCCCc4ccccc43)cc2)c1 [compound 37]

row,IC50,Compound
1,29 nM,Cc1cccc(C(=O)Nc2ccc(C(=O)N3CCCCCc4ccccc43)cc2)c1C [compound 38]
2,71 nM,O=C(Nc1ccc(C(=O)N2CCCCCc3ccccc32)cc1)c1cc(Cl)cc(Cl)c1 [compound 39]
3,200 nM,Cc1cccc(C(=O)Nc2ccc(C(=O)N3CCOCc4ccccc43)cc2)c1 [compound 41]
4,63 nM,Cc1cccc(C(=O)Nc2ccc(C(=O)N3CCOCc4ccccc43)cc2)c1C [compound 42]
5,170 nM,O=C(Nc1ccc(C(=O)N2CCOCc3ccccc32)cc1)c1cc(Cl)cc(Cl)c1 [compound 43]
6,50 nM,CC1Cc2ccccc2N(C(=O)c2ccc(NC(=O)C3CCCCC3)cc2)C1 (centres unmarked) [compound 44]
7,190 nM,CC1Cc2ccccc2N(C(=O)c2ccc(NC(=O)c3ccccc3)cc2)C1 (centres unmarked) [compound 45]
8,200 nM,COc1cccc(C(=O)Nc2ccc(C(=O)N3CC(C)Cc4ccccc43)cc2)c1 (centres unmarked) [compound 47]
9,21 nM,Cc1cccc(C(=O)Nc2ccc(C(=O)N3CC(C)Cc4ccccc43)cc2)c1C (centres unmarked) [compound 48]
10,63 nM,CC1Cc2ccccc2N(C(=O)c2ccc(NC(=O)c3cc(Cl)cc(Cl)c3)cc2)C1 (centres unmarked) [compound 49]
11,1300 nM,CN1CCN(C(=O)c2ccc(NC(=O)C3CCCCC3)cc2)c2ccccc21 [compound 50]
12,400 nM,Cc1ccccc1C(=O)Nc1ccc(C(=O)N2CCN(C)c3ccccc32)cc1 [compound 51]
13,320 nM,Cc1cccc(C(=O)Nc2ccc(C(=O)N3CCN(C)c4ccccc43)cc2)c1C [compound 52]
14,1600 nM,CN1CCN(C(=O)c2ccc(NC(=O)c3cc(Cl)cc(Cl)c3)cc2)c2ccccc21 [compound 53]
15,110 nM,CC1CCc2ccccc2N1C(=O)c1ccc(NC(=O)c2cc(Cl)cc(Cl)c2)cc1 (centres unmarked) [compound 54]
16,91 nM,CC1CCN(C(=O)c2ccc(NC(=O)c3cc(Cl)cc(Cl)c3)cc2)c2ccccc21 (centres unmarked) [compound 55]
17,530 nM,CN1CCN(C(=O)c2ccc(NC(=O)C3CCCCC3)cc2)c2ccccc2C1 [compound 79]
18,150 nM,Cc1cccc(C(=O)Nc2ccc(C(=O)N3CCN(C)Cc4ccccc43)cc2)c1C [compound 81]
19,730 nM,COc1cccc(C(=O)Nc2ccc(C(=O)N3CCN(C)Cc4ccccc43)cc2)c1 [compound 83]
20,580 nM,CCCN1CCN(C(=O)c2ccc(NC(=O)c3cccc(C)c3C)cc2)c2ccccc2C1 [compound 86]
21,46 nM,CN1CCCN(C(=O)c2ccc(NC(=O)c3ccccc3)cc2)c2ccccc21 [compound 87]
22,35 nM,CN1CCCN(C(=O)c2ccc(NC(=O)c3cc(Cl)cc(Cl)c3)cc2)c2ccccc21 [compound 89]
23,5 nM,Cc1cccc(C(=O)Nc2ccc(C(=O)N3CCCN(C)c4ccccc43)cc2)c1C [compound 91]
24,410 nM,COc1cc(C(=O)N2CCN(C)Cc3ccccc32)ccc1NC(=O)c1cc(Cl)cc(Cl)c1 [compound 92]
25,520 nM,Cc1cccc(C(=O)Nc2ccc(C(=O)N3CC(N4CCCC4)Cc4ccccc43)cc2)c1C (centres unmarked) [compound 93]
26,95 nM,Cc1ccc2c(c1)CCCN2C(=O)c1ccc(NC(=O)c2cc(Cl)cc(Cl)c2)cc1 [compound 94]

row,IC50,Compound
1,89 nM,COc1ccc2c(c1)CCCN2C(=O)c1ccc(NC(=O)c2cc(Cl)cc(Cl)c2)cc1 [compound 95]
2,39 nM,O=C(Nc1ccc(C(=O)N2CC(CO)Cc3ccccc32)cc1)c1cc(Cl)cc(Cl)c1 (centres unmarked) [compound 96]
3,24 nM,CNC1CCN(C(=O)c2ccc(NC(=O)c3cc(Cl)cc(Cl)c3)cc2)c2ccccc21 (centres unmarked) [compound 97]
4,450 nM,NC1Cc2ccccc2N(C(=O)c2ccc(NC(=O)c3cc(Cl)cc(Cl)c3)cc2)C1 (centres unmarked) [compound 98]
5,1600 nM,CC(=O)NC1Cc2ccccc2N(C(=O)c2ccc(NC(=O)c3cc(Cl)cc(Cl)c3)cc2)C1 (centres unmarked) [compound 99]
6,11 nM,CN(C)C1CCN(C(=O)c2ccc(NC(=O)c3cc(Cl)cc(Cl)c3)cc2)c2ccccc21 (centres unmarked) [compound 100]
7,540 nM,O=C(CN1CCCCC1)Nc1ccc(C(=O)N2CCCCc3ccccc32)cc1 [compound 103]
8,370 nM,O=C(COc1ccccc1)Nc1ccc(C(=O)N2CCCCc3ccccc32)cc1 [compound 104]
9,440 nM,CC(C)(COc1ccccc1)NCC(=O)Nc1ccc(C(=O)N2CCCCc3ccccc32)cc1 [compound 106]
10,32 nM,Cc1cccc(OCC(=O)Nc2ccc(C(=O)N3CCCCc4ccccc43)cc2)c1 [compound 107]
11,120 nM,COc1cccc(NCC(=O)Nc2ccc(C(=O)N3CCCCc4ccccc43)cc2)c1 [compound 108]
12,44 nM,Cc1ccc(NCC(=O)Nc2ccc(C(=O)N3CCCCc4ccccc43)cc2)cc1 [compound 110]
13,87 nM,COc1cccc(OCC(=O)Nc2ccc(C(=O)N3CCCCc4ccccc43)cc2)c1 [compound 111]
14,280 nM,Cc1ccc(NCC(=O)Nc2ccc(C(=O)N3CCCCc4ccccc43)cc2)c(C)c1 [compound 113]
15,100 nM,O=C(Nc1ccc(C(=O)N2CCCC(=O)c3ccccc32)cc1)c1cc(Cl)cc(Cl)c1 [compound 139]
16,24 nM,CN1CCN(C(=O)c2ccc(NC(=O)c3cc(Cl)cc(Cl)c3)cc2Cl)c2ccccc2C1 [compound 140]
17,10 nM,CNC1CCCN(C(=O)c2ccc(NC(=O)c3cc(Cl)cc(Cl)c3)cc2)c2ccccc21 (centres unmarked) [compound 141]
18,8 nM,CC(=O)N(C)C1CCCN(C(=O)c2ccc(NC(=O)c3cc(Cl)cc(Cl)c3)cc2)c2ccccc21 (centres unmarked) [compound 142]
19,20 nM,COc1cc(C(=O)N2CCC(N(C)C)c3ccccc32)ccc1NC(=O)c1cccc(C)c1C (centres unmarked) [compound 144]
20,60 nM,Cc1ccccc1C(=O)Nc1ccc(C(=O)N2CCC(CN(C)C)c3ccccc32)cc1 (centres unmarked) [compound 145]
21,71 nM,CCCNC1CCCN(C(=O)c2ccc(NC(=O)c3ccc(Cl)cc3Cl)cc2)c2ccccc21 (centres unmarked) [compound 169]
22,250 nM,Cc1ccccc1C(=O)Nc1ccc(C(=O)N2CCCC(N(C)C)c3ccccc32)cc1OCc1ccccc1 (centres unmarked) [compound 170]
23,870 nM,Cc1ccccc1C(=O)Nc1ccc(C(=O)N2CCC[S+]([O-])c3ccccc32)cc1 (centres unmarked) [compound 171]
24,38 nM,CN(C)C1CCCN(C(=O)c2ccc(NC(=O)c3ccccc3C(C)(C)C)cc2Cl)c2ccccc21 (centres unmarked) [compound 175]
25,4 nM,CNC1CCCN(C(=O)c2ccc(NC(=O)c3ccccc3Cl)cc2Cl)c2ccccc21 (centres unmarked) [compound 176]
